According to PubChem BioAssay (NCI):
Where “and” joins values, the source holds several entries; their conditions need not be identical. Equal values may be shown once.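 Where inhibition never reached the appropriate level, the endpoint shown equals the highest concentration tested. Otherwise, values were interpolated linearly from a five-concentration, 48-hour dose response in 96-well plates. GI50 is the concentration that inhibits growth by half. TGI is the concentration that stops growth completely.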

Key:
Assay in all cases: NCI tumour cell line growth inhibition, 48 h
A498 renal = system: A498 renal
HOP-92 NSCLC = system: HOP-92 NSCLC
HS 578T breast = system: HS 578T breast
NCI-H522 lung = system: NCI-H522 lung
OVCAR-3 ovarian = system: OVCAR-3 ovarian
RXF 393 renal = system: RXF 393 renal
SK-MEL-5 melanoma = system: SK-MEL-5 melanoma
SNB-19 CNS = system: SNB-19 CNS
SR leukemia = system: SR leukemia
TK-10 renal = system: TK-10 renal

SMILES	GI50 (A498 renal)	TGI (A498 renal)	GI50 (HOP-92 NSCLC)	TGI (HOP-92 NSCLC)	GI50 (HS 578T breast)	TGI (HS 578T breast)	GI50 (NCI-H522 lung)	TGI (NCI-H522 lung)	GI50 (OVCAR-3 ovarian)	TGI (OVCAR-3 ovarian)	GI50 (RXF 393 renal)	TGI (RXF 393 renal)	GI50 (SK-MEL-5 melanoma)	TGI (SK-MEL-5 melanoma)	GI50 (SNB-19 CNS)	TGI (SNB-19 CNS)	GI50 (SR leukemia)	TGI (SR leukemia)	GI50 (TK-10 renal)	TGI (TK-10 renal)
CCOC(=O)c1c(C)nc2c(c1N)/C(=C/c1ccc(OC)cc1)C(=O)N2Cc1ccc(F)cc1	0.535 µM	2.6 µM	0.263 µM	0.859 µM	0.479 µM	> 100 µM	0.125 µM	0.296 µM	0.109 µM	0.51 µM	0.14 µM	0.329 µM	0.333 µM	1.48 µM	0.532 µM	1.87 µM	0.0816 µM	0.726 µM	0.264 µM	1 µM
C/C(=N\Nc1ccc(Cl)cn1)c1ccccn1	0.174 µM	1.05 µM	0.134 µM	33.9 µM	0.616 µM	> 73.8 µM	0.039 µM	9.99 µM	–	14.9 µM	0.188 µM	24.9 µM	0.343 µM	5.48 µM	0.411 µM	> 100 µM	0.0556 µM	> 40.9 µM	2.06 µM	97.7 µM
COc1cc(NS(=O)(=O)c2ccc(-c3cnc(C4CC4)o3)cc2)ccc1F	0.0833 µM	0.892 µM	0.579 µM	13.1 µM	0.376 µM	23.5 µM	0.316 µM	11.8 µM	0.437 µM	16 µM	0.276 µM	6.52 µM	0.638 µM	13.1 µM	0.441 µM	24.5 µM	0.102 µM	> 100 µM	7.88 µM	53.9 µM
COc1ccccc1Cn1cc2c(c1-c1ccccc1)CCc1cnoc1-2	1.1 µM	7.18 µM	1.36 µM	9.42 µM	1.45 µM	6.32 µM	0.398 µM	1.99 µM	1.23 µM	4.32 µM	2.57 µM	> 100 µM	1.93 µM	11.2 µM	5.4 µM	> 100 µM	0.491 µM	56.5 µM	4.32 µM	> 100 µM
Nc1ncn(C2CC(O)C(CO)O2)c(=O)n1 (configuration not stated)	–	> 332 µM	–	> 375 µM	–	23.5 µM	–	218 µM	–	162 µM	–	350 µM	–	254 µM	–	> 349 µM	–	> 141 µM	–	> 375 µM
COc1cc2c3c(n(C)c(=O)c2cc1OC)-c1cc2c(cc1/C3=C\CNCCCN)OCO2	3.84 µM	12.1 µM	0.174 µM	1.27 µM	1.28 µM	6.06 µM	0.348 µM	–	1.37 µM	7.66 µM	1.69 µM	7.1 µM	1.03 µM	2.71 µM	0.261 µM	10.4 µM	0.0203 µM	0.618 µM	0.981 µM	7.47 µM
O=C(/C=C\n1cnc(-c2cc(C(F)(F)F)cc(C(F)(F)F)c2)n1)NNc1cnccn1	0.0216 µM	0.338 µM	0.094 µM	9.21 µM	0.231 µM	25.7 µM	0.128 µM	6.42 µM	0.0574 µM	4.03 µM	0.028 µM	0.225 µM	0.151 µM	2.22 µM	0.142 µM	13.4 µM	0.0362 µM	> 100 µM	0.466 µM	16.5 µM
CCN(CC)CCCC(C)Nc1cnc(C(=O)Nc2cccc3ccc(OC)nc23)cn1 (configuration not stated)	4.52 µM	18 µM	6.93 µM	21.9 µM	11 µM	28.5 µM	1.89 µM	3.79 µM	2.24 µM	5.24 µM	1.25 µM	2.86 µM	1.77 µM	3.21 µM	3.11 µM	10.9 µM	2.27 µM	7.36 µM	15.4 µM	29.7 µM
CS(=O)(=O)c1cc(=O)c2ccccc2s1	–	31.4 µM	–	3.71 µM	–	68.8 µM	–	3.32 µM	–	5.27 µM	–	9.05 µM	–	28.5 µM	–	36.5 µM	–	8.09 µM	–	13.7 µM
N#Cc1cccc(NC(=O)c2cc(-c3ccc(F)cc3F)ccc2O)c1	1.27 µM	4.3 µM	0.294 µM	2.43 µM	2.31 µM	8.91 µM	1.64 µM	12.1 µM	2.17 µM	11.7 µM	2.69 µM	7.63 µM	0.728 µM	2.15 µM	2.63 µM	18.4 µM	3.72 µM	89.2 µM	3.24 µM	20.1 µM
CSc1nc2cc(S(=O)(=O)N3CCCCC3)ccc2s1	–	> 100 µM	–	> 100 µM	–	> 100 µM	–	> 100 µM	–	> 100 µM	–	> 100 µM	–	> 100 µM	–	> 100 µM	–	> 100 µM	–	> 100 µM
Nc1nc(-c2cccc(Cl)c2)c(-c2ccc3ncccc3n2)s1	8.4 µM	> 25 µM	> 24 µM	> 25 µM	> 25 µM	> 25 µM	> 25 µM	> 25 µM	> 25 µM	> 25 µM	> 25 µM	> 25 µM	> 19.6 µM	> 25 µM	> 25 µM	> 25 µM	> 25 µM	> 25 µM	> 17.2 µM	> 25 µM
Cc1ccc2c(c1)CN(C(=O)CCC(=O)OCc1ccccc1)c1ccc(C)cc1CN2C(=O)CCC(=O)OCc1ccccc1	–	> 100 µM	–	> 100 µM	–	> 100 µM	–	> 100 µM	–	> 100 µM	–	> 100 µM	–	> 100 µM	–	> 100 µM	–	> 100 µM	–	> 100 µM
O=c1[nH]c(=O)n(C2OC(CO)C(O)C(O)C2O)cc1F (configuration not stated)	–	> 100 µM	–	> 100 µM	–	> 100 µM	–	> 100 µM	–	> 100 µM	–	> 100 µM	–	> 100 µM	–	> 100 µM	–	> 100 µM	–	> 100 µM
CCCCN1CSC(=S)N(Cc2ccccc2)C1	–	> 100 µM	–	> 100 µM	–	> 100 µM	–	> 71.8 µM	–	> 69.8 µM	–	> 100 µM	–	67.5 µM	–	> 100 µM	–	> 100 µM	–	> 100 µM
COc1ccc(OC)c(C(=O)c2oc3ccc(Br)cc3c2N)c1	0.0923 µM	1.56 µM	1.71 µM	38.1 µM	0.403 µM	> 64.8 µM	0.321 µM	4.14 µM	0.347 µM	3.28 µM	0.3 µM	1.69 µM	0.41 µM	16.9 µM	0.901 µM	> 100 µM	0.193 µM	19.1 µM	1.74 µM	87.7 µM
CC(C)(C)c1ccc(O)c(CN(Cc2cc(C(C)(C)C)ccc2O)c2ccccc2)c1	–	28.1 µM	–	30.7 µM	–	42 µM	–	26.9 µM	–	34.1 µM	–	27.5 µM	–	28.5 µM	–	31.5 µM	–	38.1 µM	–	31.5 µM
CC(C)(C)c1cc(NC(=O)Cc2ccc(-c3cnc4cc(-c5cnn(CCN6CCOCC6)c5)ccc4n3)cc2)no1	0.0663 µM and 0.0152 µM	0.425 µM and 0.0791 µM	0.194 µM and 0.0913 µM	2.92 µM and > 3 µM	0.132 µM and 0.235 µM and 0.0377 µM	1.56 µM and 2.88 µM and > 2.8 µM	0.298 µM and 0.465 µM and 0.0962 µM	50 µM and > 100 µM and > 3 µM	0.482 µM and 0.675 µM and 0.105 µM	50 µM and > 100 µM and > 3 µM	0.179 µM and 0.274 µM and 0.0395 µM	1.93 µM and 1.45 µM	0.612 µM and 0.674 µM and 0.232 µM	50 µM and 11.3 µM and > 0.95 µM	2.47 µM and 2.26 µM and 0.279 µM	50 µM and > 100 µM and > 3 µM	0.197 µM and 0.336 µM and 0.0938 µM	50 µM and > 100 µM and > 3 µM	–	50 µM and > 100 µM and > 3 µM
CC[C@H](C)[C@H]1O[C@]2(C=C[C@@H]1C)C[C@@H]1C[C@@H](C/C=C(\C)[C@@H](O[C@H]3C[C@H](OC)[C@@H](O[C@H]4C[C@H](OC)[C@@H](NC)[C@H](C)O4)[C@H](C)O3)[C@@H](C)/C=C/C=C3\CO[C@@H]4[C@H](O)C(C)=C[C@@H](C(=O)O1)[C@]34O)O2	2.68 µM	11.6 µM	2.12 µM	9.67 µM	2.31 µM	6.56 µM	1.75 µM	3.73 µM	3.44 µM	11.8 µM	2.03 µM	4.47 µM	1.8 µM	3.2 µM	4.27 µM	16.9 µM	1.49 µM	4.17 µM	1.96 µM	4.99 µM
